Experimental data as given in patent US8541394B2, “Aminoglycoside antibiotics” (Meiji Seika Pharma Co., Ltd., priority 2006, dated 2013).
≈ marks a conversion by molar mass, not a printed value.

Experiments:
[1] = test system: clinically isolated MRSA strain, which has high resistance to arbekacin; experiment: Antimicrobial activity (MIC), agar plate dilution method, MRSA with high resistance to arbekacin; assay type: cell-based, methicillin-resistant Staphylococcus aureus (MRSA); conditions: Staphylococcus aureus, different from Test Example 1
[2] = test system: kidney of normal mice; conditions: mouse, in vivo; for Amount of NAG in urine: ip, 120 mg/kg/day
Procedure: An evaluation system of influence on the kidney was constructed based on renal disease model preparation method using gentamicin (KIDNEY AND DIALYSIS, Vol. 31, 1991, extra edition, “Renal Disease Model”, p. 423 “Drug-induced Renal Damage and its Examination Method,” Kidney and Dialysis Editorial Committee, published by TOKYOIGAKUSYA). The influence of the compound represented by formula (I) produced in Example 1 on the kidney was evaluated using this evaluation system. A physiological saline administration group and an arbekacin administration group were set as control groups. Each group consisted of four mice (Crj: CD-1 (ICR) female mice of eight weeks old).
In the above evaluation system, the evaluation of nephrotoxicity was carried out using NAG as an index. NAG exists in lysosome in each tissue of humans and animals, is an enzyme, which converts a mucopolysaccharide to a glycoprotein, for example, converts β-N-acetyl-D-glucosaminide to β-N-acetyl-D-glucosamine, and is plentifully present in proximal uriniferous tubule epithelial cells of the kidney in which aminoglycoside antibiotics are particularly accumulated. When the kidney, especially its proximal uriniferous tubule is damaged, NAG is released into urine to increase the amount of NAG in the urine. Accordingly, the increase in the amount of NAG in urine is considered to reflect proximal uriniferous tubule damage and is adopted as one of biochemical markers for estimating the level of renal insufficiency in clinical test items. The amount of NAG is measured by an examination method, for example, an MCP-NAG method (Outline of Latest Internal Medicine, Vol. 4, Clinical Laboratory—Kensa No Susumekata To Deta No Yomikata (How To Forward Examination and How To Read Data)—<Naika Soron 4 (General Remarks Of Internal Medicine 4> p. 274, Imura et al. (ed.), published by Nakayama Syoten Co., Ltd., 1994).
A solution of physiological saline of the compound according to the present invention having a concentration of 12 mg/mL was administered to the mice in each group at a dose of 120 mg/kg/day (in two divided doses; morning and afternoon) for 4 days by repeated intraperitoneal administration. Naturally excreted urine was collected for about 24 hr from the completion of the administration in the morning on day 4, and the amount of NAG in the urine was measured by the MCP-NAG method. The same treatment was carried out for the physiological saline administration group and the arbekacin administration group.
The influence of arbekacin and an arbekacin analogue TS2037 (5,4″-diepiarbekacin) produced according to the description of WO 2005/070945 on the kidney was evaluated in the same manner as in Test Example 3. […]

[3] = test system: clinically isolated MRSA strain (n=9), which has low sensitivity to arbekacin; experiment: Antimicrobial activity (MIC), agar plate dilution method, MRSA with low sensitivity to arbekacin; assay type: cell-based, methicillin-resistant Staphylococcus aureus (MRSA); conditions: Staphylococcus aureus, clinically isolated MRSA strain (n=9) with low sensitivity to arbekacin, read-out: minimal inhibitory concentration (MIC)
Procedure: MIC of the compound represented by formula (I) produced in Example 1 against an MRSA strain, specifically a clinically isolated MRSA strain (n=9), which has low sensitivity to arbekacin and against which the minimal inhibitory concentration (MIC, μg/mL) is 4 to 8, was measured by an agar plate dilution method according to the standard method of Japan Society of Chemotherapy (Chemotherapy, Vol. 29, pp. 76 to 79, 1981).

[4] = test system: proximal uriniferous tubule epithelial cells of the kidney of pigs; conditions: pig kidney proximal uriniferous tubule epithelial cells; compared with arbekacin; 44th ICAAC (2004) subject No. F-716; cited from earlier work

Row | Structure (SMILES) | MIC [1] | amount of NAG in the urine [2] | Amount of NAG in urine [2] | MIC [3] | nephrotoxicity using NAG as an index [4]
1 | NCC[C@H](O)C(=O)N[C@@H]1C[C@H](N)[C@@H](O[C@H]2O[C@H](CN)CC[C@H]2N)[C@H](O)[C@H]1O[C@H]1O[C@H](CO)[C@@H](O)[C@H](N)[C@H]1O [Arbekacin, (S)-1-N-(4-amino-2-hydroxybutyryl)dibekacin] | 128 µg/mL (≈ 232 µM) | 168.5 mIU | 135.0 mIU | 4 to 8 µg/mL (≈ 7.24 to 14.5 µM) | 
2 | NCC[C@H](O)C(=O)NC1C(O)[C@H](N)C(O[C@H]2OC(CN)CCC2N)C(O)[C@H]1O[C@H]1OC(CO)[C@@H](O)C(N)C1O (stereo in doubt) [Compound represented by formula (I), 2-Hydroxyarbekacin] |  |  | 74.7 mIU | 0.5 to 2 µg/mL | 
3 | NCC[C@H](O)C(=O)NC1C[C@H](N)C(O[C@H]2OC(CN)CCC2N)C(O)[C@H]1O[C@H]1OC(CO)[C@H](O)C(N)C1O (some centres unmarked) [TS2037, 5,4″-diepiarbekacin] |  | 358.8 mIU |  |  | higher than that of arbekacin
